The values that follow come from US11136409B2, “Compositions and methods for identification, assessment, prevention, and treatment of AML using USP10 biomarkers and modulators” (Dana-Farber Cancer Institute, Inc., priority 2016, dated 2021).

In data set [1] the test system is mutant FLT3-expressing cells. In words: Dynamic BH3 profiling (mitochondrial priming). Format: cell-based, human. Conditions: cytochrome c release in response to Bim peptide, 14 h; compared to wt or null FLT3-expressing cells. As for the experimental part: To determine drug-induced changes in mitochondrial priming, dynamic BH3 profiling was performed as previously described in Montero et al. (2015) Cell 160:977-989 and Pan et al. (2014) Cancer Discov. 4:362-375. Briefly, 0.4×10^6 cells/well were exposed to drug treatment for 14 hours. At the end of incubation time, cells were washed in PBS, pelleted at 500×g for 5 min, and resuspended in MEB buffer. Fifteen μl of cell suspension was added to each well of 384 well plate containing 15 μl of MEB buffer containing 20 μg/mL digitonin and BH3 peptides at twice their final concentration, and the mixture was incubated for 60 min at 26° C. to allow mitochondrial depolarization. Peptide exposure was then terminated by adding 10 μl 4% formaldehyde in PBS for 15 min, followed by neutralization with N2 buffer (1.7M Tris, 1.25M glycine, pH 9.1) for 10 min. In order to determine cytochrome C levels, anti-cytochrome C clone 6H2.B4 conjugated to Alexa Fluor® 647 (BD Bioscience) was diluted 1:50 in 10× staining buffer (10% BSA, 2% Tween-20 and 0.02% sodium azide in PBS) and 10 μl of this antibody-containing buffer was added to each well for a final dilution of 1:400. Cells were stained overnight at 4° C. in dark and data were acquired on a BD LSRFortessa™ analyzer (BD Biosciences). Priming change (Δ) was calculated by comparing cytochrome C abundance in treated cells to that of DMSO-treated control cells.

Data set [2] concerns the target USP7 (Homo sapiens, UniProt Q93009). In words: USP7 IC50 of HBX19818 analogs (Table 9). Format: biochemical. Conditions: read-out: USP7 IC50 +/− SEM.
The test system of data set [3] is MOLM13-luc+. The data set is described as follows: Anti-proliferation, 24 hr treatment (CellTiter-Glo). It is filed as cell-based, human. Conditions: 24 hr treatment; MOLM13-luc+ (FLT3-ITD); read-out: Anti-proliferation IC50. An excerpt:
(§1) Nomo-1, P31-FUJ, and NB4 were obtained from Dr. Gary Gilliland. MV4, 11 cells were obtained from Dr. Anthony Letai. Hel, K562, THP, U937, TF-1 and K052 cells were purchased from the American Type Culture Collection (ATCC) (Manassas, Va., USA). […] Cell lines were submitted for cell line authentication and were authenticated within 6 months of manuscript preparation through cell line short tandem repeat (STR) profiling (DDC Medical, Fairfield, Ohio and Molecular Diagnostics Laboratory, Dana Farber Cancer Institute). […] PBMCs were generously provided by Dr. Steven Treon and Dr. Guang Yang.
(§2) The CellTiter-Glo® assay (Promega, Madison, Wis.) was used for proliferation studies and carried out according to manufacturer instructions. Cell viability is reported as percentage of control (untreated) cells, and error bars represent the standard error of the mean for each data point.

Data set [4] relates to NB4-luc+. The description is as above. Format: cell-based, human. Particulars: 24 hr treatment; NB4-luc+ (FLT3 wt or null); read-out: Anti-proliferation IC50.
Description: as §1, §2

The subject of data set [5] is TF-1. Described as above. Conditions: 24 hr treatment; TF-1 (FLT3 null); read-out: Anti-proliferation IC50. Format: cell-based, human.
Description: as §1, §2

In data set [6] the test system is NOMO-1. The data set is described as above. Particulars: 24 hr treatment; NOMO-1 (FLT3 wt or null); read-out: Anti-proliferation IC50. It is filed as cell-based, human.
Description: as §1, §2

Data set [7] relates to U937. Described as above. Format: cell-based, human. Conditions: 24 hr treatment; U937 (FLT3 wt or null); read-out: Anti-proliferation IC50.
Description: as §1, §2

Data set [8] deals with OCI-AML5. Described as above. It is filed as cell-based, human. Particulars: 24 hr treatment; OCI-AML5 (FLT3 wt or null); read-out: Anti-proliferation IC50.
Description: as §1, §2

For data set [9], the system named is HEL. The description is as above. It is filed as cell-based, human. Conditions: 24 hr treatment; HEL (FLT3 wt or null); read-out: Anti-proliferation IC50.
Description: as §1, §2

The subject of data set [10] is K562. Described as above. Format: cell-based, human. Particulars: 24 hr treatment; K562 (FLT3 wt or null); read-out: Anti-proliferation IC50.
Description: as §1, §2

Data set [11] concerns MOLM14. Described as above. It is filed as cell-based, human. Conditions: 24 hr treatment; MOLM14 (FLT3-ITD); read-out: Anti-proliferation IC50.
Description: as §1, §2

Data set [12] deals with K052. The description is as above. Particulars: 24 hr treatment; K052 (FLT3 wt or null); read-out: Anti-proliferation IC50. It is filed as cell-based, human.
Description: as §1, §2

The test system of data set [13] is P31. The description is as above. Format: cell-based, human. Conditions: 24 hr treatment; P31 (FLT3 wt or null); read-out: Anti-proliferation IC50.
Description: as §1, §2

Data set [14] has as its system MV4,11. Described as above. Conditions: 24 hr treatment; MV4,11 (FLT3-ITD); read-out: Anti-proliferation IC50. It is filed as cell-based, human.
Description: as §1, §2

For data set [15], the system named is PBMCs. The data set is described as follows: Treatment of PBMCs from healthy donors with USP10-targeting inhibitors. Format: cell-based, human.
Description: as §1, §2

Data set [16] concerns AML primagraft (D835Y+, FLT3-ITD+) cells. The data set is described as follows: Treatment of mutant FLT3-expressing AML primagraft cells ex vivo. Format: cell-based, human. Conditions: read-out: IC50 (+/−S.D.) AML primagraft (D835Y+, FLT3-ITD+). How it is done:
All animal studies were performed according to protocols approved by the Dana-Farber Cancer Institute's Institutional Animal Care and Use Committee. […] Mice were sacrificed on day 21 of treatment. Bone marrow was flushed from mouse femurs, and spleens and livers were dissected and preserved first in formalin, followed 24 hours later by preservation in 70% ethanol. […] All AML primagraft samples used in the studies described herein were obtained through the Public Repository of Xenografts (proxe.org).
as §2

Data set [17] concerns FLT3-ITD+, D835Y+ AML primagraft. In words: Primagraft study in NSG mice. It is filed as in vivo. Particulars: 15 mg/kg. How it is done: All animal studies were performed according to protocols approved by the Dana-Farber Cancer Institute's Institutional Animal Care and Use Committee. […]. Mice were sacrificed on day 21 of treatment. Bone marrow was flushed from mouse femurs, and spleens and livers were dissected and preserved first in formalin, followed 24 hours later by preservation in 70% ethanol. […]; All AML primagraft samples used in the studies described herein were obtained through the Public Repository of Xenografts (proxe.org).

For data set [18], the target named is T1, human USP10 (residues 376-798) (Homo sapiens, UniProt Q14694).
T1 construct: A construct of human USP10 covering residues 376-798 in the pET28a vector; His-tag (cleaved yes); made in house; host or cells: E. coli BL21 (DE3)
The data set is described as follows: In vitro USP10 activity assay (Ubiquitin-AMC). Format: biochemical. Conditions: ubiquitin-AMC as substrate; purified enzyme; read-out: USP10 biochemical IC50. As for the experimental part: Protein expression and purification. A construct of human USP10 covering residues 376-798 in the pET28a vector was over-expressed in E. coli BL21 (DE3) in TB medium in the presence of […] of kanamycin. Cells were grown at 37° C. to an OD of 0.8, cooled to 17° C., induced with 500 μM isopropyl-1-thio-D-galactopyranoside, incubated overnight at 17° C., collected by centrifugation, and stored at −80° C. Cell pellets were sonicated in buffer A (50 mM HEPES (pH 7.5), 300 mM NaCl, 10% glycerol, 10 mM Imidazole, and 3 mM BME) and the resulting lysate was centrifuged at 30,000×g for 30 min. Ni-NTA beads (Qiagen) were mixed with lysate supernatant for 30 min and washed with buffer A. Beads were transferred to an FPLC-compatible column and the bound protein was washed with 15% buffer B (50 mM HEPES (pH 7.5), 300 mM NaCl, 10% glycerol, 300 mM Imidazole, and 3 mM BME) and eluted with 100% buffer B. Thrombin was added to the eluted protein and incubated at 4° C. overnight. The sample was then passed through a HiPrep 26/10 desalting column (GE Healthcare) pre-equilibrated with buffer A without imidazole, and the eluted protein was subjected to a second Ni-NTA step to remove His-tag and Thrombin. The eluent was concentrated and passed through a Superdex® 200 10/300GL column (GE Healthcare) in a buffer containing 20 mM HEPES (pH 7.5), 150 mM NaCl, and 1 mM DTT. Fractions were pooled, concentrated to 20 mg/ml, and frozen at −80° C.
In vitro USP10 activity assay. Recombinant USP10, residues 376-798, was tested for its activity in a Ubiquitin-AMC assay in presence or absence of inhibitors. For this assay, 10 nM USP10 were pre-incubated with different concentrations of inhibitors or DMSO as a control in 50 mM HEPES pH7.6, 0.5 mM EDTA, 11 uM ovalbumin, and 5 mM DTT. The reaction was incubated for 6 hours at room temperature prior to the addition of 2 uM Ubiquitin-AMC (Boston Biochem) substrate. The initial rate of the reaction was measured by collecting fluorescence data at one minute intervals over 30-minute period using a CLARIOstar® fluorescence plate reader at excitation and emission wavelength of 345 and 445 nm, respectively. The calculated initial rate values were plotted against inhibitor concentrations to determine IC50 values.

Data set [19] concerns Ba/F3-FLT3-ITD-luc+ cells. In words: Non-invasive in vivo bioluminescence study.
For data set [20], the target named is USP10 (Homo sapiens, UniProt Q14694). In words: MALDI TOF DUB assay with diubiquitin substrate. It is filed as biochemical. Particulars: diubiquitin (K11) as substrate. How it is done:
Thirty-one human DUBs were freshly diluted in the reaction buffer (40 mM Tris-HCl, pH 7.6, 5 mM DTT, 0.005% BSA) at different concentrations (see Table 10). […] The enzymes were pre-incubated with the compounds for 30 min at room temperature at 10 μM final concentration. 0.48 μl of di-ubiquitin topoisomers were added to the reaction mixture to initiate the reaction. The reaction was sealed and incubated for 30 min at room temperature and stopped by adding TFA to a final concentration of 2% (v/v).
Mass spectrometry data was acquired on an UltrafleXtreme MALDI-TOF mass spectrometer (Bruker Daltonics) with Compass 1.3 control and processing software. The sample carrier was taught before each analysis to optimize and centre laser shooting. […] Samples were analysed in automatic mode (AutoXecute, Bruker Daltonics). […] An amount of 3,500 shots were summed up in “random walk” and with “large” smartbeam laser focus. Spectra were automatically calibrated on the ^15N-Ub m/z and processed using smoothing (Savitzky-Golay algorithm) and baseline subtraction (‘TopHat’) for reproducible peak annotation on non-resolved isotope distributions: one cycle, 0.2 m/z for the width. For area calculation, the complete isotopic distribution was taken into account. […]

“Also recorded” adds a separate entry of the source. Read-outs that look alike come from different tables or passages of the source.

Sequence of USP10 (Q14694 whole entry): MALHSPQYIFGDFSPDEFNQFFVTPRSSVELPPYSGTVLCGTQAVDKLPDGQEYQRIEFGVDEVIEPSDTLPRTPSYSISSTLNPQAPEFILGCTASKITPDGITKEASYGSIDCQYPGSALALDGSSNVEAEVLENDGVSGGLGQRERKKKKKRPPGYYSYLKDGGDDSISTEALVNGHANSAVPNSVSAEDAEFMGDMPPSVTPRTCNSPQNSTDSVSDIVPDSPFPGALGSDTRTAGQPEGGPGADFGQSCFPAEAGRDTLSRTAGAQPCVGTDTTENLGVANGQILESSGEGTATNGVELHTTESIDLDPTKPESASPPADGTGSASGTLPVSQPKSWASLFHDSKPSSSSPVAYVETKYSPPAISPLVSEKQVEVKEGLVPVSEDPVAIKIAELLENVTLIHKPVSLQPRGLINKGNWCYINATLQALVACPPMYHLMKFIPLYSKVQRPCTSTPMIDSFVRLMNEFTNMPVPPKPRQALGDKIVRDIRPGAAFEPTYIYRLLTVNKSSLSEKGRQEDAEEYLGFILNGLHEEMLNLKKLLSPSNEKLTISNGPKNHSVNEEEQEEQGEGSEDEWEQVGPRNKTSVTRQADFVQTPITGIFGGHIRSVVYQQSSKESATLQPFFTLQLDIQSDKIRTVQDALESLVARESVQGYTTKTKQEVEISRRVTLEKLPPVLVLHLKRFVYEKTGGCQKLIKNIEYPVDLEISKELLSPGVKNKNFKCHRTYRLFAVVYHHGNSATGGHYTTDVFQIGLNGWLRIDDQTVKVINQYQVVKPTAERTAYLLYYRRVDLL
T1 sequence (Q14694 376-798): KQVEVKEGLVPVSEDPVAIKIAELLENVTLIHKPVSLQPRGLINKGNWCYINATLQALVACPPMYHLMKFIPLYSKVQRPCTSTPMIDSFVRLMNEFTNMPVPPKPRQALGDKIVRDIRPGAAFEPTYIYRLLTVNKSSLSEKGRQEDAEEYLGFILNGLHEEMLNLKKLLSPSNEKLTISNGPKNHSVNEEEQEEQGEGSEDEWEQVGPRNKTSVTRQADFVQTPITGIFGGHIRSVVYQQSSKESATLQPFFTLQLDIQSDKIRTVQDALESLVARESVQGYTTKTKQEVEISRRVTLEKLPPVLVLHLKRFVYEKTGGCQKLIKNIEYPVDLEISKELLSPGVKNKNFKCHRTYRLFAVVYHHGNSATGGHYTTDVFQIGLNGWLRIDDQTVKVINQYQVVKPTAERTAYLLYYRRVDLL
Sequence of USP7 (Q93009 whole entry): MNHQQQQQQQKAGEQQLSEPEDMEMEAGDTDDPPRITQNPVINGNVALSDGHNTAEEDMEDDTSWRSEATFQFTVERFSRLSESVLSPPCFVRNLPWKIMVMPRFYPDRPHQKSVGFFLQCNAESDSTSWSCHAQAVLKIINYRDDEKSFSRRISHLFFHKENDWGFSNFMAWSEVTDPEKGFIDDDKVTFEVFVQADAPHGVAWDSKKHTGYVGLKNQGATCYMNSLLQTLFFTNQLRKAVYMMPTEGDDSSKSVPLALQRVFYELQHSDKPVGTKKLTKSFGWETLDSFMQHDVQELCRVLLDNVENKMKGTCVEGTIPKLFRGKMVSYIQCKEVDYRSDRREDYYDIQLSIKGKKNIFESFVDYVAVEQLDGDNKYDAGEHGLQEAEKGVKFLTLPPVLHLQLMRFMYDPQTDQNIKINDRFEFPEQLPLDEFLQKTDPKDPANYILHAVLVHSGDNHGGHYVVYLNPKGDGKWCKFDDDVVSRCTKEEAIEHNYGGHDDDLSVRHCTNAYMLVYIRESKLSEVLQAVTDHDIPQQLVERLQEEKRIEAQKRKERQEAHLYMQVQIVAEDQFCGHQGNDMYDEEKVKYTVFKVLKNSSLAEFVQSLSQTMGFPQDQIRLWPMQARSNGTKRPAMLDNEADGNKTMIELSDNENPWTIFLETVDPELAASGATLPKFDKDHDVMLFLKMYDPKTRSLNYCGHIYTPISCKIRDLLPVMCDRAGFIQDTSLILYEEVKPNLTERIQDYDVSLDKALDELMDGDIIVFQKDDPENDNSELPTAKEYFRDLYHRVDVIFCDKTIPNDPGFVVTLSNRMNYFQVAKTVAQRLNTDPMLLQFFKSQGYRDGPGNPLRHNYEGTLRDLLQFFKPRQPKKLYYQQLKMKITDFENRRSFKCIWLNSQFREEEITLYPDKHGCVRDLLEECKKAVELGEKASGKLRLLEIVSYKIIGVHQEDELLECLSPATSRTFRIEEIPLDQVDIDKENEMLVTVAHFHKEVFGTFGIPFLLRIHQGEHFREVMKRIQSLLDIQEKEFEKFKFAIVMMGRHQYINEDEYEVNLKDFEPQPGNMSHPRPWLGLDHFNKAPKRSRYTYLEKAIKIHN

In the case of `O=C(NCCN1CCN(Cc2ccccc2)CC1)c1ccc2nc3c(c(Cl)c2c1)CCCC3` [C598-0571], the “Mitochondrial priming for apoptosis” value in data set [1] was “more strongly”. Further, the IC50 came out at 22 µM in data set [2]; 12.6 µM in [3]; 29 µM in [4]; 18.4 µM in data set [5]; 20.9 µM in data set [6]; 21.9 µM in data set [7]. The IC50 stood at 37.7 µM in data set [8]; 40.7 µM in data set [9]; 35.9 µM in data set [10]; 18.6 µM in data set [11]; 35.1 µM in data set [12]; 30 µM in data set [13]. The IC50 in data set [14] came out at 9.2 µM; in data set [15] (24 hr assay, PBMC#1, read-out: IC50 (+/−S.D.) PBMC#1) it was 32.3 µM; in data set [15] (24 hr assay, PBMC#2, read-out: IC50 (+/−S.D.) PBMC#2), 31.3 µM; in data set [15] (72 hr assay, PBMC#1, read-out: IC50 (+/−S.D.) PBMC#1), 16.6 µM; in data set [15] (72 hr assay, PBMC#2, read-out: IC50 (+/−S.D.) PBMC#2), 14.8 µM; in data set [16] (24 hr assay), 10.3 µM. Also, the IC50 in [16] (72 hr assay) came to 1.4 µM.

Consider `CC(=O)c1cc([N+](=O)[O-])c(Sc2ccc(F)cc2F)s1` [P22077], for which the Tolerability result in [17] (21-day treatment period) was “generally well-tolerated; also recorded: generally well tolerated”. In addition, the Average weight loss in [17] (21 days, same for vehicle-treated, none below 15% weight loss) lay in the range of 2 to 3 g. The IC50 in [18] came out at 15 µM; in data set [15] (Homo sapiens, 24 hr assay, PBMC#1, read-out: IC50 (+/−S.D.) PBMC#1), 10.6 µM; in data set [15] (Homo sapiens, 24 hr assay, PBMC#2, read-out: IC50 (+/−S.D.) PBMC#2), 7.8 µM; in data set [15] (Homo sapiens, 72 hr assay, PBMC#1, read-out: IC50 (+/−S.D.) PBMC#1), 6.9 µM; in data set [15] (Homo sapiens, 72 hr assay, PBMC#2, read-out: IC50 (+/−S.D.) PBMC#2) it was 4.4 µM; in data set [16] (Homo sapiens, 24 h), 6.9 µM. The IC50 was 2.6 µM in data set [16] (Homo sapiens, 72 h) and 6 µM in data set [20]. The “Reduction in luciferase-positive signal in bone marrow versus vehicle” value in data set [19] (50 mg/kg IP BID, 4 days) is given as “approximately 2 fold”. Further, in data set [19] (50 mg/kg IP BID, 4 days, flow cytometry), the “Lower percentage of FLT3 expression in bone marrow versus vehicle” value is reported as “approximately 2 fold”. In addition, in data set [19] (mouse studies), the Vital organ toxicity result is “no evidence of vital organ toxicity”. Moreover, the “Body weight versus vehicle” value in [19] (treated for up to 11 days) is “no significant difference in weight”.
